Measurements published in patent publication US9617545B2, “Method for treating breast cancer by targeting breast cancer stem cell” (KYUNGPOOK NATIONAL UNIVERSITY INDUSTRY-ACADEMIC COOPERATION …, priority 2014, dated 2017).

Assays:
xenografted tumor = details: administered to an animal into which tumor has been xenografted; cited from earlier work
MCF7 and MCF7/ADR cells = test: MTT assay: cell viability against doxorubicin; format: cell-based, human; details: MCF7/ADR cells compared with MCF7 cells; doxorubicin 0, 1, 2, 10, 25 μM; 24, 48, 72 hours; FIG. 2A
Description: A human breast cancer maternal cell line, MCF-7 (Korean Cell Line Bank), was continuously exposed to 1 μM of a drug, doxorubicin (Sigma). In this case, the maternal cell line was cultured in […] for at least one week to establish a breast cancer cell MCF7/ADR having induced drug resistance. Here, the cell culture was performed at 37° C. and 5% CO^2 in a DMEM medium (Hyclon, Logan, Utah) supplemented with 10% FBS and 1% penicillin.
To evaluate cytotoxicity of the anti-cancer agent (doxorubicin), a cell viability assay was performed using an MTT assay. First, cells were plated on a 96-well plate at a density of 5×10^3 cells/well, treated with the drug, and then cultured for 24, 48, and 72 hours. Thereafter, each well was treated with 5 mg/ml of MTT (AMRESCO), and the cells were cultured at 37° C. for 4 hours. Each well was treated with DMSO ([…]) to dissolve a formazan salt, and the amount of the formazan salt was determined by measuring an OD value at 540 nm using a microplate reader (Tecan Austria GmbH, Austria). […]
After 24, 48, and 72 hours when the MCF7 and MCF7/ADR cells were treated with doxorubicin (0, 1, 2, 10, and 25 μM), the cell viabilities were determined.

P-glycoprotein (P-gp) = test: Western blotting of P-gp after siRNA knockdown in MCF7/ADR cells; format: cell-based, human; details: gene silenced with siRNA 20 nM, FIG. 7
Description: (§1) Proteins were electrophoresed on SDS-PAGE, and the separated proteins were transferred to a nitrocellulose membrane (Whatman), and then blocked at room temperature for 15 minutes in a TBS-5% non-fat milk solution supplemented with 0.1% Tween-20. The membrane was cultured overnight with a primary antibody at 4° C., cultured with a horseradish peroxidase-conjugated secondary antibody at room temperature for an hour, and developed using a West Pico chemiluminescent substrate (PIERCE).
(§2) The primary antibodies used herein were P-gp (Cell Signaling Technology, #12683, 1:1000), p-PI3K (Santa Cruz Biotechnology, sc-12929, 1:500), PI3K (Santa Cruz Biotechnology, sc-1637, 1:500), p-Akt (Cell Signaling Technology, #9271, 1:1000), Akt (Cell Signaling Technology, #9272, 1:1000), β-catenin (Cell Signaling Technology, #9562, 1:1000), and β-actin (Santa Cruz Biotechnology, sc-47778, 1:500).
(§3) siRNA transfection was performed using a Neon® Transfection system (Life technologies). After 48 hours, the expression of each gene was analyzed using qRT-PCR.
To further evaluate whether the six genes finally screened in Example 4 regulated the drug resistance and the size and number of CSC populations, the genes were knocked down with siRNA, and an expression level of P-gp was determined using western blotting. That is, the MCF7/ADR cells were transfected with siRNA of each gene, and an expression level of P-gp was measured.

MCF7/ADR cells [1] = test: qRT-PCR of CSC, resistance and EMT markers after siRNA silencing; format: cell-based, human; details: for mRNA expression of markers (CD44, N-cadherin): FIG. 8B; for mRNA expression of markers (CD44, Integrin-α6, P-gp, Vimentin, N-cadherin, E-cadherin): FIG. 8A
Description: Total RNAs were extracted from the cultured cells using a TRIzoL reagent (Invitrogen), and cDNAs were synthesized using a cDNA synthetic kit (Promega) for reverse transcription-PCR.
In this case, the real-time PCR was performed in a Bio-Rad Real-Time PCR system using a SYBR Green PCR Master mix (Applied Biosystems), and the data was obtained by calculating an average value for separate experiments performed in at least triplicate.
as §3
Therefore, to determine whether EXT1, LDHB, CD109, EFEMP2, RASIP1, and SERPINE1 were associated with the aggressive phenotype of cancer, the mRNA expression levels of cancer stem cell markers (CD44, and Integrin-α6 (ITGA6)), a resistance marker (P-gp), and EMT markers (Vimentin, N-cadherin, and E-cadherin) were determined using qRT-PCR.

MCF7/ADR cells [2] = test: CD44+/CD24− assay (flow cytometric assay) after siRNA silencing; format: cell-based, human; details: for number of the cancer stem cells: genes silenced in the resistant cells, summary statement; for CD44+/CD24− population decreased by: MCF7/ADR cells transfected with siRNA, FIG. 9A
Description: To detect cancer stem cells (CSCs) in the MCF7 and MCF7/ADR cells, a breast cancer stem cell surface antigen, CD44+/CD24−, was assayed.
Specifically, the 1×10^6 cells were labeled with anti-human CD44-APC and CD24-PE (BD biosciences). In this case, the antibody was diluted with a 5% BSA solution. The cells were cultured at room temperature for 25 minutes, washed, re-suspended in […] of 5% BSA, and then detected using BD FACS Aria III.
as §3

MCF7/ADR cells [3] = test: Mammosphere formation assay after siRNA silencing; format: cell-based, human; details: for self-proliferation ability: genes silenced in the resistant cells, summary statement; for number and size of the mammospheres: MCF7/ADR cells, compared to the control, FIG. 10
Description: Since the breast cancer stem cells formed a mass of colonies in the form of floating spheres without attaching to a surface of a plate, the size and number of the masses were observed by a mammosphere formation assay to determine a cancer-stem-cell-specific effect.
Specifically, a single-cell suspension was cultured at a density of 1,000 to 15,000 cells/well (on an ultralow attachment culture plate (Corning CoStar)) using a MammoCult™ Human Medium kit (Stem Cell Technologies), and the spherical cells were counted and observed under a microscope.
as §3
To determine whether the EXT1 and LDHB regulated the self-renewal capacity of CSCs in the MCF7/ADR cells, a mammosphere formation assay was performed.

[4] = system: PI3K-β-catenin signaling pathway; test: Western blot of PI3K-β-catenin signaling pathway factors after siRNA treatment; format: cell-based, human; details: MCF7/ADR cells treated with siRNA; FIG. 11
Description: as §1, §2, §3
Wnt signaling is a major pathway for maintaining stemness, and β-catenin is a particularly important regulator. Also, since the PI3K-Akt signaling pathway is known from previous research to regulate a Wnt-β-catenin signaling pathway, it was determined how the EXT1 and LDHB genes regulated the stemness, and whether the EXT1 and LDHB genes were associated with the pathways.
Therefore, it was confirmed that, when the MCF7/ADR cells were treated with siRNAs against the EXT1, LDHB, CD109, EFEMP2, RASIP1 and SERPINE1 genes (Table 3), the expression of β-catenin decreased, and the expression of phosphorylated PI3K (p-PI3K) in an active form of PI3K, and phosphorylated Akt (p-Akt) in an active form of Akt […] (see FIG. 11).

common cancer cells = test: Cell viability of common cancer cells under gene expression inhibitor; format: cell-based; details: treatment with the gene expression inhibitor; summary statement
MCF7/ADR cells [5] = test: ALDEFLUOR assay (ALDH+ population) after siRNA silencing; format: cell-based, human; details: MCF7/ADR cells transfected with siRNA; FIG. 9B
Description: Specifically, the cells were stained with […] bodipyaminoacetaldehyde (BAAA), and then cultured at 37° C. for 45 minutes. An ALDH1 inhibitor, diethylaminobenzaldehyde (DEAB), was used as the negative control. The 1 ×10^6 stained cells were assayed using BD FACS Aria III. In this case, the positive fluorescent ALDH1-expressed cells (ALDH+) were detected in a green fluorescent channel (520 to 540 nm).
as §3

Row | Molecule | tumor size in xenografted animal (xenografted tumor) | cell viability against doxorubicin (MCF7 and MCF7/ADR cells) | expression of P-glycoprotein (P-glycoprotein (P-gp)) | mRNA expression of markers (CD44, N-cadherin) (MCF7/ADR cells [1]) | number of the cancer stem cells (MCF7/ADR cells [2]) | self-proliferation ability (MCF7/ADR cells [3]) | expression of phosphorylated Akt (p-Akt) [4] | expression of phosphorylated PI3K (p-PI3K) [4] | expression of β-catenin [4] | cell viability of common cancer cells (common cancer cells) | mRNA expression of markers (CD44, Integrin-α6, P-gp, Vimentin, N-cadherin, E-cadherin) (MCF7/ADR cells [1]) | CD44+/CD24− population decreased by (MCF7/ADR cells [2]) | ALDH+ population decreased by (MCF7/ADR cells [5]) | number and size of the mammospheres (MCF7/ADR cells [3])
1 | CC1=C2C[C@H]3[C@@H](CC=C4C[C@@H](O)CC[C@@]43C)[C@@H]2CC[C@]12O[C@@H]1C[C@H](C)CN[C@H]1[C@H]2C [cyclopamine] | dramatically contracted | – | – | – | – | – | – | – | – | – | – | – | – | –
2 | COc1cccc2c1C(=O)c1c(O)c3c(c(O)c1C2=O)C[C@@](O)(C(=O)CO)C[C@@H]3O[C@H]1C[C@H](N)[C@H](O)[C@H](C)O1 [doxorubicin] | – | higher cell viability | – | – | – | – | – | – | – | – | – | – | – | –
3 | siCD109: siRNA against CD109 gene (Bioneer siRNA No. 1027641); sense SEQ ID NO: 5, anti-sense SEQ ID NO: 6 (sense GAGUACUGGAGCGGAUCUA; antisense UAGAUCCGUCCAGUACUC; listed as RNA, chemistry not given here) | – | – | down-regulated | reduced | decreased | lowered | increased | increased | decreased | no change | – | – | – | –
4 | siEFEMP2: siRNA against EFEMP2 gene (Bioneer siRNA No. 1045872); sense SEQ ID NO: 7, anti-sense SEQ ID NO: 8 (sense CCCAAACCUGUGUCAACUU; antisense AAGUUGACACAGGUUUGGG; listed as RNA, chemistry not given here) | – | – | down-regulated | reduced | decreased | lowered | increased | increased | decreased | no change | – | – | – | –
5 | siEXT1: siRNA against EXT1 gene (Bioneer siRNA No. 1049149); sense SEQ ID NO: 1, anti-sense SEQ ID NO: 2 (sense CACUUCUGGAUAACUCUA; antisense UAGAGUUAUCCCAGAAGUG; listed as RNA, chemistry not given here) | – | – | down-regulated | – | decreased | lowered | increased | increased | decreased | no change | reduced | approximately 5.09% | approximately 2.1% | significantly reduced
6 | siLDHB: siRNA against LDHB gene (Bioneer siRNA No. 1083399); sense SEQ ID NO: 3, anti-sense SEQ ID NO: 4 (sense GAUUCAUCCCGUGUCAACA; antisense UGUUGACACGGGAUGAAUC; listed as RNA, chemistry not given here) | – | – | down-regulated | – | decreased | lowered | increased | increased | decreased | no change | reduced | ~5.52% | ~3.21% | significantly reduced
7 | siRASIP1: siRNA against RASIP1 gene (Bioneer siRNA No. 1126933); sense SEQ ID NO: 9, anti-sense SEQ ID NO: 10 (sense CUGGAUAGUAACCCUUUCA; antisense UGAAAGGGUUACUAUCCAG; listed as RNA, chemistry not given here) | – | – | down-regulated | reduced | decreased | lowered | increased | increased | decreased | no change | – | – | – | –
8 | siSERPINE1: siRNA against SERPINE1 gene (Bioneer siRNA No. 1135690); sense SEQ ID NO: 11, anti-sense SEQ ID NO: 12 (sense CACACAAAAGGUAUGAUCA; antisense UGAUCAUACCUUUUGUGUG; listed as RNA, chemistry not given here) | – | – | down-regulated | reduced | decreased | lowered | increased | increased | decreased | no change | – | – | – | –
